From EP0318029B1, “Cyclic amine and pharmacological composition” (Eisai Co., Ltd., priority 1987, dated 1989)

Test system: cerebral cortex slice
Experiment: Glutamate liberation inhibitory activity in cerebral cortex slice
Assay type: cell-based, SD rat
Settings: 10⁻⁴ M test compound; rat cerebral cortex slice, 30 min pre-incubation, then 50 mM KCl for 60 min; glutamate determined by HPLC, relative to solvent control
Experimental: Glutamate liberation inhibitory activity in cerebral cortex slice
A male SD rat was decapitated, and cerebral cortices on both sides were then extirpated to prepare a slice having a thickness of 750 µm (weight: 10 to 20 mg) with a McIlwain tissue chopper. The slice was incubated in a Krebs-Henseleit liquid containing a test compound in the form of a solution thereof for 30 minutes. Then the slice was incubated in one ml of a Krebs-Henseleit liquid containing 50 mM of KCl and the test compound solution for 60 mins. For control, a solvent was added to a Krebs-Henseleit liquid containing only 50 mM of KCl.
The glutamate liberated in the solution was determined by HPLC, and the glutamate liberation inhibitory activity (%) in 10⁻⁴ M of each test compound solution was calculated by the following equation: (1 -(glutamate in each test compound solution)/(amount of glutamate in control group)) x 100 [formula]

Compound: O=C(CN1CCC(Oc2ccc(F)cc2)CC1)c1ccc2ccccc2c1 [compd. of Ex. 3]
- glutamate liberation inhibitory activity (%) 1 x 10⁻⁴ M: 49%
